The data set has as its system CCRIS mutagenicity, Ames/micronucleus/aberration tests. The data set is described as follows: CCRIS mutagenicity studies.
The mark [1] stands for this setting: Test System: AMES SALMONELLA TYPHIMURIUM, Strain/Indicator: TA97, Metabolic Activation: NONE, Method: PREINCUBATION
Where [2] appears, read: Test System: AMES SALMONELLA TYPHIMURIUM, Strain/Indicator: TA98, Metabolic Activation: NONE, Method: PREINCUBATION
[3] abbreviates: Test System: AMES SALMONELLA TYPHIMURIUM, Strain/Indicator: TA100, Metabolic Activation: NONE, Method: PREINCUBATION
[4] abbreviates: Test System: AMES SALMONELLA TYPHIMURIUM, Strain/Indicator: TA1535, Metabolic Activation: NONE, Method: PREINCUBATION
[5] abbreviates: Test System: AMES SALMONELLA TYPHIMURIUM, Strain/Indicator: TA100, Metabolic Activation: NONE, Method: STANDARD PLATE.
[6] abbreviates: Test System: AMES SALMONELLA TYPHIMURIUM, Strain/Indicator: TA98, Metabolic Activation: NONE, Method: STANDARD PLATE.

Structures are written as SMILES. The source made the active and inactive calls. How the calls were made is not given here.

Among the data in PubChem BioAssay AID1259407 (Chemical Carcinogenesis Research Information System (CCRIS), 2018) are mutagenic call values, retold here.

Regarding `Nc1ccc2ccccc2c1N=Nc1ccc([N+](=O)[O-])cc1`, the mutagenic call (Test System: AMES SALMONELLA TYPHIMURIUM, Strain/Indicator: TA97, Metabolic Activation: HAMSTER, LIVER, S-9, AROCLOR 1254 (10%), Method: PREINCUBATION) is “active; positive”; the mutagenic call under setting [1] was “active; positive”; the mutagenic call (Test System: AMES SALMONELLA TYPHIMURIUM, Strain/Indicator: TA97, Metabolic Activation: RAT, LIVER, S-9, AROCLOR 1254 (10%), Method: PREINCUBATION) was “active; positive”; the mutagenic call (Test System: AMES SALMONELLA TYPHIMURIUM, Strain/Indicator: TA98, Metabolic Activation: HAMSTER, LIVER, S-9, AROCLOR 1254 (10%), Method: PREINCUBATION) is “active; positive”; the mutagenic call under setting [2] was “active; positive”; the mutagenic call (Test System: AMES SALMONELLA TYPHIMURIUM, Strain/Indicator: TA98, Metabolic Activation: RAT, LIVER, S-9, AROCLOR 1254 (10%), Method: PREINCUBATION) is “active; positive”. In addition, the mutagenic call is, setting by setting: (Test System: AMES SALMONELLA TYPHIMURIUM, Strain/Indicator: TA100, Metabolic Activation: HAMSTER, LIVER, S-9, AROCLOR 1254 (10%), Method: PREINCUBATION) “active; positive”; under setting [3], “inactive; negative”; (Test System: AMES SALMONELLA TYPHIMURIUM, Strain/Indicator: TA100, Metabolic Activation: RAT, LIVER, S-9, AROCLOR 1254 (10%), Method: PREINCUBATION) “active; positive”; (Test System: AMES SALMONELLA TYPHIMURIUM, Strain/Indicator: TA1535, Metabolic Activation: HAMSTER, LIVER, S-9, AROCLOR 1254 (10%), Method: PREINCUBATION) “inactive; negative”; under setting [4], “inactive; negative”; (Test System: AMES SALMONELLA TYPHIMURIUM, Strain/Indicator: TA1535, Metabolic Activation: RAT, LIVER, S-9, AROCLOR 1254 (10%), Method: PREINCUBATION) “inactive; negative”.
In the case of `O=c1c(O)c2c(c3c1ccc1[nH]c4c(ccc5ccccc54)cc13)O2`, the mutagenic call was “inactive; negative” (Test System: AMES SALMONELLA TYPHIMURIUM, Strain/Indicator: TA98, Metabolic Activation: RAT, LIVER, AROCLOR 1254, NADPH GENERATING SYSTEM, Method: STANDARD PLATE); “inactive; negative” (Test System: AMES SALMONELLA TYPHIMURIUM, Strain/Indicator: TA100, Metabolic Activation: RAT, LIVER, AROCLOR 1254, NADPH GENERATING SYSTEM, Method: STANDARD PLATE); “inactive; negative” (Test System: CHINESE HAMSTER V-79, Strain/Indicator: V-79/8-AZAGUANINE, Method: STANDARD PLATE).
Take `O=C(OCC(COC(=O)c1ccccc1)(COC(=O)c1ccccc1)COC(=O)c1ccccc1)c1ccccc1`: the mutagenic call was “inactive; negative” (Test System: AMES SALMONELLA TYPHIMURIUM, Strain/Indicator: TA97, Metabolic Activation: HAMSTER, LIVER, S-9, AROCLOR 1254 (10 OR 30%), Method: PREINCUBATION); “inactive; negative” under setting [1]; “inactive; negative” (Test System: AMES SALMONELLA TYPHIMURIUM, Strain/Indicator: TA97, Metabolic Activation: RAT, LIVER, S-9, AROCLOR 1254 (10 OR 30%), Method: PREINCUBATION); “inactive; negative” (Test System: AMES SALMONELLA TYPHIMURIUM, Strain/Indicator: TA98, Metabolic Activation: HAMSTER, LIVER, S-9, AROCLOR 1254 (10 OR 30%), Method: PREINCUBATION); “inactive; negative” under setting [2]; “inactive; negative” (Test System: AMES SALMONELLA TYPHIMURIUM, Strain/Indicator: TA98, Metabolic Activation: RAT, LIVER, S-9, AROCLOR 1254 (10 OR 30%), Method: PREINCUBATION). Also, the mutagenic call is “inactive; negative” (Test System: AMES SALMONELLA TYPHIMURIUM, Strain/Indicator: TA100, Metabolic Activation: HAMSTER, LIVER, S-9, AROCLOR 1254 (10 OR 30%), Method: PREINCUBATION); “inactive; negative” under setting [3]; “inactive; negative” (Test System: AMES SALMONELLA TYPHIMURIUM, Strain/Indicator: TA100, Metabolic Activation: RAT, LIVER, S-9, AROCLOR 1254 (10 OR 30%), Method: PREINCUBATION); “inactive; negative” (Test System: AMES SALMONELLA TYPHIMURIUM, Strain/Indicator: TA1535, Metabolic Activation: HAMSTER, LIVER, S-9, AROCLOR 1254 (10 OR 30%), Method: PREINCUBATION); “inactive; negative” under setting [4]; “inactive; negative” (Test System: AMES SALMONELLA TYPHIMURIUM, Strain/Indicator: TA1535, Metabolic Activation: RAT, LIVER, S-9, AROCLOR 1254 (10 OR 30%), Method: PREINCUBATION). For the same molecule, the mutagenic call (Test System: AMES SALMONELLA TYPHIMURIUM, Strain/Indicator: TA1537, Metabolic Activation: HAMSTER, LIVER, S-9, AROCLOR 1254 (30%), Method: PREINCUBATION) was “inactive; negative”; the mutagenic call (Test System: AMES SALMONELLA TYPHIMURIUM, Strain/Indicator: TA1537, Metabolic Activation: NONE, Method: PREINCUBATION) was “inactive; negative”; the mutagenic call (Test System: AMES SALMONELLA TYPHIMURIUM, Strain/Indicator: TA1537, Metabolic Activation: RAT, LIVER, S-9, AROCLOR 1254 (30%), Method: PREINCUBATION) was “inactive; negative”.
As for `O=C1CC(=C(Cl)Cl)C(=O)N1`, under setting [5], the mutagenic call is “active; positive”.
`O=C(O)CC(O)(CC(=O)O)C(=O)O`: the mutagenic call under setting [1] is “inactive; negative”; the mutagenic call (Test System: AMES SALMONELLA TYPHIMURIUM, Strain/Indicator: TA97, Metabolic Activation: NONE, Method: STANDARD PLATE) is “inactive; negative”; the mutagenic call (Test System: AMES SALMONELLA TYPHIMURIUM, Strain/Indicator: TA97, Metabolic Activation: RAT, LIVER, S-9, AROCLOR 1254, Method: PREINCUBATION) was “inactive; negative”; the mutagenic call (Test System: AMES SALMONELLA TYPHIMURIUM, Strain/Indicator: TA97, Metabolic Activation: RAT, LIVER, S-9, PHENOBARBITAL, Method: STANDARD PLATE) was “inactive; negative”; the mutagenic call (Test System: AMES SALMONELLA TYPHIMURIUM, Strain/Indicator: TA97, Metabolic Activation: S-9, Method: PREINCUBATION) is “inactive; negative”; the mutagenic call under setting [6] is “inactive; negative”. Moreover, the mutagenic call (Test System: AMES SALMONELLA TYPHIMURIUM, Strain/Indicator: TA98, Metabolic Activation: RAT, LIVER, S-9, PHENOBARBITAL, Method: STANDARD PLATE) was “inactive; negative”; the mutagenic call under setting [5] is “inactive; negative”; the mutagenic call (Test System: AMES SALMONELLA TYPHIMURIUM, Strain/Indicator: TA100, Metabolic Activation: RAT, LIVER, S-9, PHENOBARBITAL, Method: STANDARD PLATE) was “inactive; negative”; the mutagenic call (Test System: AMES SALMONELLA TYPHIMURIUM, Strain/Indicator: TA102, Metabolic Activation: NONE, Method: PREINCUBATION) is “inactive; negative”; the mutagenic call (Test System: AMES SALMONELLA TYPHIMURIUM, Strain/Indicator: TA102, Metabolic Activation: RAT, LIVER, S-9, AROCLOR 1254, Method: PREINCUBATION) is “inactive; negative”; the mutagenic call (Test System: AMES SALMONELLA TYPHIMURIUM, Strain/Indicator: TA102, Metabolic Activation: S-9, Method: PREINCUBATION) is “inactive; negative”. The mutagenic call (Test System: AMES SALMONELLA TYPHIMURIUM, Strain/Indicator: TA104, Metabolic Activation: NONE, Method: STANDARD PLATE) is “inactive; negative” and the mutagenic call (Test System: AMES SALMONELLA TYPHIMURIUM, Strain/Indicator: TA104, Metabolic Activation: RAT, LIVER, S-9, PHENOBARBITAL, Method: STANDARD PLATE) was “inactive; negative”.
Consider `Cc1ccc(C)c(N=Nc2c(O)ccc3ccccc23)c1`, for which the mutagenic call reads like this: under setting [6], “inactive; negative”; (Test System: AMES SALMONELLA TYPHIMURIUM, Strain/Indicator: TA98, Metabolic Activation: RAT, LIVER, S-9, Method: STANDARD PLATE) “inactive; negative”; under setting [5], “inactive; negative”; (Test System: AMES SALMONELLA TYPHIMURIUM, Strain/Indicator: TA100, Metabolic Activation: RAT, LIVER, S-9, Method: STANDARD PLATE) “inactive; negative”.
Take `O=c1c2c(c3ccc4[nH]cccc4c3c1O)O2`: under setting [5], the mutagenic call is “inactive; negative”.
